Assay results from US5670479A, “α-ketoamide derivatives as inhibitors of thrombosis” (Corvas International, Inc., priority 1994, dated 1997).

What was measured:
baboons [1] = conditions: baboon; dose which gives a 50% inhibition of platelet deposition; other direct antithrombins evaluated earlier in this model; cited from earlier work
baboons [2] = conditions: baboon, other direct antithrombins evaluated earlier in this model, cited from earlier work
[3] = test system: Male Harlan Sprague Dawley rats; assay: Rat model of FeCl3-induced platelet-dependent arterial thrombosis; type: in vivo
Source text: Kurz, K. D., Main, B. W., and Sandusky, G. E., Thromb. Res., 60: 269-280. (1990). In this model a platelet-rich, occlusive thrombus is formed in a segment of the rat carotid artery treated with a fresh solution of FeCl3 absorbed to a piece of filter paper. The FeCl3 is thought to diffuse into the treated segment of artery and causes de-endothelialization resulting in thrombus formation. The effect of a test compound on the incidence of occlusive thrombus formation following the application of the FeCl3 is monitored by ultrasonic flowtometry and is used as the primary end point. The use of flowtometry is a modification of the original procedure in which thermal detection of clot formation was employed. Kurz, K. D., Main, B. W., and Sandusky, G. E., Thromb. Res., 60: 269-280 (1990).
Male Harlan Sprague Dawley rats (420-450 g) were acclimated at least 72 hours prior to use and fasted for 12 hours prior to surgery with free access to water. The animals were prepared, anesthetized with Nembutal with catheters for blood pressure monitoring, drug and anesthesia delivery being implanted as described above. The left carotid artery was exposed and isolated by making a midline cervical incision followed by blunt dissection and spreading techniques to separate a 2 cm segment of the vessel from the carotid sheath. A silk suture is inserted under the proximal and distal ends of the isolated vessel to provide clearance for the placement of a ultrasonic flow probe (Transonic) around the proximal end of the vessel. The probe is then secured with a stationary arm.
The test compounds were administered as described above after placement of the flow probe and stabilization of the preparation for a period of 60 minutes prior to the thrombogenic stimulus. At t=0, a 3 mm diameter piece of filter paper (Whatman #3) soaked with […] of a 35% solution of fresh FeCl3 (in water) was applied the segment of isolated carotid artery distal to the flow probe. Blood pressure, blood flow, heart rate, and respiration were monitored for 60 minutes.
The incidence of occlusion (defined as the attainment of zero blood flow) was recorded as the primary end point. Following the 60 minute observation period the flow probe was removed and the area cleared of all excess fluid. The distal and proximal sutures were tied off and arterial clamps placed on the far proximal and distal ends of the segment. The isolated segment was cut out, blotted dry on filter paper and weighed. The segment was re-weighed following removal of the clot and the difference recorded as total % clot (see above). Weights were recorded on only those segments which had detectable thrombus. Following the procedure the animals were euthanized as described above.

a-thrombin = a-thrombin (Homo sapiens, UniProt P00734); assay: Amidolytic thrombin assay (inhibitor constant Ki, Ki*); type: biochemical; set-up: Purified human a-thrombin; purchased Enzyme Research Laboratories, Inc; conditions: human a-thrombin 0.25 nM, Pefachrome t-PA substrate, HBSA pH 7.5
Procedure: The ability of the compounds of the present invention to act as inhibitors of thrombin catalytic activity in comparison to Hirulog-1 (compound 25) was assessed by determining their inhibition constant, Ki.
Enzyme activity was determined using the chromogenic substrate Pefachrome t-PA (CH3 SO2 -D-hexahydrotyrosine-glycyl-L-arginine-p-nitroaniline, obtained from Pentapharm Ltd.). The substrate was reconstituted in deionized water prior to use.
Ki values were determined for test compounds using the following methodologies:
The assay was conducted by combining in appropriate wells of a Corning microtiter plate, […], […] of the test compound at a specified concentration diluted in HBSA (or HBSA alone for Vo(uninhibited velocity) measurement), and 50 mL of the chromogenic substrate diluted in HBSA. […] Velocities of Pefachrome-tPA substrate hydrolysis which occurred over a 40 minute time period was measured by the change in absorbance at 405 nm using a Thermo Max® Kinetic Microplate Reader. […]
The initial velocity of Pefachrome t-PA hydrolysis was measured by the change in absorbance at 405 nm using a Thermo Max® Kinetic Microplate Reader over a 2 minute period in which less than 5% of the added substrate was utilized. […]
Ki* was determined by fitting Vs/Vo verses [I] using Equation 1 by non-linear regression analysis. […]

[4] = Group 4: 0.1 mg/kg i.v. bolus + 40 mg/kg/min i.v. infusion

## (D-Phe)-Pro-Arg-Pro-(Gly)4 -Asn-Gly-Asp-Phe-Glu-Glu-Ile-Pro-Glu-Glu-Tyr-Leu-OH [Hirulog-1]
Baboons [1]
  Antithrombotic Effects ED50: 125 nmol/kg/min
Baboons [2]; control 32 sec
  Antihemostatic Effects APTT: > 300 s
Baboons [2]; control 4 min
  Antihemostatic Effects Bleeding Time: 21 min
[3]; Group 1: 0.1 mg/kg i.v. bolus + 5 mg/kg/min i.v. infusion
  Incidence of Occlusion: 3/3
[3]; Group 1: 0.1 mg/kg i.v. bolus + 5 mg/kg/min i.v. infusion, mean ± S.E.M., segments with detectable thrombus
  % Clot: 70.1 ± 5.5%
[3]; Group 2: 0.1 mg/kg i.v. bolus + 10 mg/kg/min i.v. infusion
  Incidence of Occlusion: 5/6
[3]; Group 2: 0.1 mg/kg i.v. bolus + 10 mg/kg/min i.v. infusion, mean ± S.E.M., segments with detectable thrombus
  % Clot: 59.42 ± 4.34%
[3]; Group 3: 0.1 mg/kg i.v. bolus + 20 mg/kg/min i.v. infusion
  Incidence of Occlusion: 5/6
[3]; Group 3: 0.1 mg/kg i.v. bolus + 20 mg/kg/min i.v. infusion, mean ± S.E.M., segments with detectable thrombus
  % Clot: 45.3 ± 11.63%
[3]; [4]
  % Clot: 0%
  Incidence of Occlusion: 0/6
a-thrombin
  Ki: 0.437 nM
